Results on one molecule are retold here after US20190374506A1, “COMPOSITIONS AND METHODS FOR TREATING CANCER” (BETH ISREAL DEACONESS MEDICAL CENTER, priority 2016, published 2019).

Data set [1] has as its system PTEN subcellular localization in DU145 cells. The data set can be described thus: Confocal immunofluorescence of PTEN subcellular localization in DU145 cells. It is filed as cell-based, human. Conditions: 20 μM I3C for 4 Days. As for the experimental part:
FIG. 10D provides a panel of micrographs showing the effects of I3C on PTEN subcellular localization in DU145 cells. DU145 cells treated with 20 μM I3C for 4 Days. Confocal images of DU145 cells treated with/without I3C were stained with DAPI and the indicated antibodies. Bar, 20 μm. Whether targeting WWP1/NEDD4-1, thereby enhancing PTEN dimerization and function, could offer a unique opportunity to treat MYC-driven cancers was investigated. […] As there is no small pharmacological inhibitor currently available to suppress/inhibit WWP1 activity, Indole-3-Carbinol (I3C), a potential WWP1 inhibitor, which suppresses the WWP1 activity through binding to its HECT domain, was used. First, to assess the on-target effects of I3C towards WWP1, Wwp1^-/- MEFs were used. […] Additionally, two independent PTEN stably knocked-down cells were generated. […] PC3 and DU145 cells stably expressing the indicated constructs were plated on coverslip. The following day, cells were washed with ice-cold PBS, fixed in 4% paraformaldehyde, permeabilized with 0.02% Triton X-100, and then blocked with PBS supplemented with 20% goat serum. Cells were incubated with anti-PTEN antibody (6H2.1, 1:100) from Cascade Bioscience, diluted in PBS containing 10% goat serum overnight and then with Alexa488-conjugated secondary antibody together with 1 μg/ml of DAPI for 1 hour. Images were acquired with a […] […]

Data set [2] concerns PTEN/AKT pathway in PC3 cells (PTEN-null). The experiment in a line: Western blot analysis of PTEN/AKT pathway in PC3 cells. Type of data set: cell-based, human. Conditions: different doses of I3C for 3 Days. How it is done:
FIG. 11B provides an analysis of effects of I3C on PTEN/AKT pathway in DU145 or PC3 cells by western blot analysis. Cells were treated with different doses of I3C for 3 Days, and followed by western blot analysis. Whether targeting WWP1/NEDD4-1, thereby enhancing PTEN dimerization and function, could offer a unique opportunity to treat MYC-driven cancers was investigated. […] As there is no small pharmacological inhibitor currently available to suppress/inhibit WWP1 activity, Indole-3-Carbinol (I3C), a potential WWP1 inhibitor, which suppresses the WWP1 activity through binding to its HECT domain, was used. First, to assess the on-target effects of I3C towards WWP1, Wwp1^−/− MEFs were used. […] Additionally, two independent PTEN stably knocked-down cells were generated. […] Western Blotting and Immunoprecipitation. For western blotting, cells were lysed in RIPA buffer (Boston BioProducts) supplemented with protease (Roche) and phosphatase (Roche) inhibitor. Proteins were separated on NuPAGE 4-12% Bis-Tris gradient gels (Invitrogen), transferred to polyvinylidine difluoride membranes (Immobilon P, Millipore) and the blots were probed with the indicated antibodies. For immunoprecipitation, PC3, 293T and MEF cells were transfected with the indicated expression vectors by using LIPOFECTAMIN 2000 (Life Technologies). […]
In general terms: A western blot detects proteins with antibodies after separation by electrophoresis.

The test system of the next data set is LNCaP cells (PTEN-null). The data set can be described thus: Cell growth, LNCaP cells. Type of data set: cell-based, human. An excerpt: (§1) Whether targeting WWP1/NEDD4-1, thereby enhancing PTEN dimerization and function, could offer a unique opportunity to treat MYC-driven cancers was investigated. […] As there is no small pharmacological inhibitor currently available to suppress/inhibit WWP1 activity, Indole-3-Carbinol (I3C), a potential WWP1 inhibitor, which suppresses the WWP1 activity through binding to its HECT domain, was used. First, to assess the on-target effects of I3C towards WWP1, Wwp1^−/− MEFs were used. […] Additionally, two independent PTEN stably knocked-down cells were generated.

The test system of data set [3] is DU145 cells with PTEN depletion. The data set can be described thus: Growth curves, MTT assay, DU145 cells with stable PTEN shRNA knockdown. Type of data set: cell-based, human. Conditions: two independent PTEN shRNAs, various doses of I3C for 5 Days.
Description: as §1, with “FIG. 11D provides growth curves of DU145 cells, stably expressing vector control or two independent shRNAs, treated with various doses of I3C for 5 Days, and then assayed with colorimetric MTT assay (three experiments). Whether” for “Whether”
(Formazan colour is commonly taken as a measure of viable cells.)

Data set [4] concerns DU145 cells stably expressing MYC or vector control. The data set can be described thus: Growth curves, MTT assay, DU145 cells stably expressing MYC or vector control. It is filed as cell-based, human.
For data set [5], the system named is AKT activation in prostate spheres. The experiment in a line: Western blot analysis of prostate spheres at P1 passage. Type of data set: cell-based, mouse. To be noted: 20 μM I3C for 3 Days (low dose). How it is done: FIG. 11G is a Western blot analysis of prostate spheres at P1 passage treated with 20 μM I3C for 3 Days.
For data set [6] the following is noted: literature statement; cited from earlier work.

Consider `OCc1c[nH]c2ccccc12` [I3C, indole-3-carbinol], for which, in data set [1], the “PTEN plasma membrane localization” value is on record as “induced its plasma membrane accumulation”. Besides, the “effects on AKT suppression and apoptosis” value in data set [2] was “only negligible effects”. The cell growth result in the data set on LNCaP cells (PTEN-null) is given as “only modestly suppressed cell growth”. In addition, the “sensitivity of cells with PTEN depletion compared to control cells” value in data set [3] was “exhibited resistance”. The “cell growth upon overexpression of MYC” value in data set [4] (MYC-overexpressing DU145 cells, same low dose of I3C) is “became sensitized”. In data set [4] (vector control DU145 cells, low dose of I3C), the “cell growth of control cells” value is given as “little effect on the cell growth”. For the same molecule, in data set [5] (Hi-Myc prostate spheres), the “AKT activation driven by MYC expression” value is “abolished AKT activation” and the “apoptosis in Hi-Myc prostate spheres” value is on record as “concomitant apoptosis”. In addition, the “AKT activation and apoptosis in WT prostate spheres” value in data set [5] (WT prostate spheres) was “not in WT prostate spheres”. The toxicity result in data set [6] is on record as “negligible toxicity”.
